Read-outs that look alike come from different tables or passages of the source.
What was measured:
XIAP BIR3 = XIAP BIR3 (Homo sapiens, UniProt P98170); assay: Fluorescence polarization (FP) based competitive binding assay to XIAP BIR3; set-up: human XIAP (residues 241-356) fused to His-tag; His-tag; details: FP binding, XIAP BIR3 30 nM, SM5F 5 nM
[1] = test system: SK-OV-3 ovarian cancer cell line; assay: Cell growth inhibition, WST-8 assay, SK-OV-3; type: cell-based; details: 4 days, WST-8, read-out: SK-OV-3 IC50
Procedure: (§1) The effect of the compounds of the present invention on the growth of various cancer cell lines was tested. Cells were seeded in 96-well flat bottom cell culture plates at a density of 3000 cells/well with a tested compound and incubated at 37° C. in an atmosphere of 95% air and 5% CO2 for 4 days. […] Dojindo Molecular Technologies, Inc., Gaithersburg, Md.). […] The absorbance of the samples was measured at 450 nm using a ULTRA Tecan Reader (Molecular Device). […] The ability of SM-406 to inhibit cell growth as a single agent was tested in the MDA-MB-231 breast cancer cell line, SK-OV-3 and OVCAR-4 ovarian cancer cell lines and SK-MeI-2 melanoma cancer cell line. Cells were treated for 4 days. Cell growth was determined using a WST-based assay.

[2] = test system: MDA-MB-231 human breast cancer cell line; assay: Cell growth inhibition, WST-8 assay, MDA-MB-231; type: cell-based
Procedure: as §1

[3] = Homo sapiens, MDA-MB-231, 96 h, 4 days, WST-8, read-out: MDA-MB-231 IC50

Chain of XIAP BIR3 (P98170 241-356): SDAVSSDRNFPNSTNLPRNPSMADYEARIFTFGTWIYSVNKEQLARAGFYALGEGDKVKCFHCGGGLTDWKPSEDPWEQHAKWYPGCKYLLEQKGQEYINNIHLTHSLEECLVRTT

Row | SMILES | IC50 (XIAP BIR3) [µM] | IC50 ([1]; listed as SH-207) [µM] | IC50 [1] [µM] | IC50 ([2]; 4 days, WST-8, listed as SH-207, read-out: MDA-MB-231 IC50) [µM] | IC50 ([2]; 4 days, WST-8, read-out: MDA-MB-231 IC50) [µM] | IC50 ([1]; Homo sapiens, SK-OV-3, 96 h) [µM] | IC50 [2, 3] [µM] | IC50 ([2]; Homo sapiens, MDA-MB-231, 96 h, read-out: MDA-MB-231 IC50 (μM)) [µM]
1 | CN[C@@H](C)C(=O)N[C@H]1CN(C(=O)Cc2ccccc2)CCC[C@H]2CC[C@@H](C(=O)NC(c3ccccc3)c3ccccc3)N2C1=O [SM-207] | < 1 | < 1 | < 10 | < 1 | < 10 | – | – | –
2 | CN[C@@H](C)C(=O)N[C@H]1CN(C(=O)C(C)C)CC[C@H]2CC[C@@H](C(=O)NC(c3ccc(F)cc3)c3ccc(F)cc3)N2C1=O [SM-209] | < 1 | – | – | – | – | < 10 | < 10 | –
3 | CN[C@@H](C)C(=O)N[C@H]1CN(C(=O)CC(C)C)CC[C@H]2CC[C@@H](C(=O)NC(c3ccc(F)cc3)c3ccc(F)cc3)N2C1=O [SM-210] | < 1 | – | – | – | – | < 1 | < 1 | –
4 | CCCN[C@@H](C)C(=O)N[C@H]1CN(C(=O)CC(C)C)CC[C@H]2CC[C@@H](C(=O)NC(c3ccccc3)c3ccccc3)N2C1=O [SM-211] | < 1 | – | – | – | – | < 10 | < 10 | –
5 | CC[C@H](NC)C(=O)N[C@H]1CN(C(=O)CC(C)C)CC[C@H]2CC[C@@H](C(=O)NC(c3ccccc3)c3ccccc3)N2C1=O [SM-212] | < 1 | – | – | – | – | < 10 | < 10 | –
6 | CC(C)CC(=O)N1CC[C@H]2CC[C@@H](C(=O)NC(c3ccccc3)c3ccccc3)N2C(=O)[C@@H](NC(=O)[C@H](C)NCCO)C1 [SM-213] | < 1 | – | – | – | – | < 10 | < 10 | –
7 | CN[C@@H](C)C(=O)N[C@H]1CNCC[C@H]2CC[C@@H](C(=O)NC(c3ccccc3)c3ccccc3)N2C1=O [SM-227] | – | – | – | – | – | < 10 | < 10 | –
8 | CN[C@@H](C)C(=O)N[C@H]1CN(C(=O)CC(C)C)CC[C@H]2CC[C@@H](CN(Cc3ccccc3)C(C)=O)N2C1=O [SM-230] | < 10 | – | – | – | – | < 100 | < 100 | –
9 | CN[C@@H](C)C(=O)N[C@H]1CN(C(C)=O)CC[C@H]2CCC(C(=O)NC(c3ccccc3)c3ccccc3)N2C1=O (stereo partly shown) [SM-330] | – | – | – | – | – | – | – | < 1
10 | CN[C@@H](C)C(=O)N[C@H]1CN(C(=O)Cc2ccc(F)cc2)CC[C@H]2CCC(C(=O)NC(c3ccccc3)c3ccccc3)N2C1=O (stereo partly shown) [SM-350] | < 1 | – | – | – | – | < 1 | < 1 | –
11 | CN[C@@H](C)C(=O)N[C@H]1CN(C(=O)Cc2ccc(F)cc2F)CC[C@H]2CCC(C(=O)NC(c3ccccc3)c3ccccc3)N2C1=O (stereo partly shown) [SM-356] | < 1 | – | – | – | – | – | < 1 | –
12 | CN[C@@H](C)C(=O)N[C@H]1CN(C(=O)Cc2ccccc2)CC[C@H]2CC[C@@H](C(=O)NC3CCCc4ccccc43)N2C1=O (stereo partly shown) [SM-376] | < 0.1 | – | – | – | – | < 1 | < 1 | –
13 | CN[C@@H](C)C(=O)N[C@H]1CN(C(=O)Cc2ccc(F)cc2)CC[C@H]2CC[C@@H](C(=O)NC3CCCc4ccccc43)N2C1=O (stereo partly shown) [SM-377] | < 0.1 | – | – | – | – | < 1 | < 1 | –
14 | CN[C@@H](C)C(=O)N[C@H]1CN(C(=O)Cc2ccccc2)CC[C@H]2CC[C@@H](C(=O)NCc3ccc(F)cc3)N2C1=O [SM-401] | < 1 | – | – | – | – | < 1 | < 1 | –
15 | CN[C@@H](C)C(=O)N[C@H]1CN(C(=O)Cc2ccc(F)cc2)CC[C@H]2CC[C@@H](C(=O)NCc3ccc(F)cc3)N2C1=O [SM-402] | < 1 | – | – | – | – | < 1 | < 1 | –
16 | CN[C@@H](C)C(=O)N[C@H]1CN(C(=O)Cc2ccccc2)CC[C@H]2CC[C@@H](C(=O)NC(c3ccc(F)cc3)c3ccc(F)cc3)N2C1=O [SM-403] | < 1 | – | – | – | – | < 1 | < 1 | –
17 | CN[C@@H](C)C(=O)N[C@H]1CN(C(=O)CCc2ccc(F)cc2)CC[C@H]2CC[C@@H](C(=O)NC(c3ccc(F)cc3)c3ccc(F)cc3)N2C1=O [SM-404] | < 1 | – | – | – | – | < 1 | < 1 | –
18 | CN[C@@H](C)C(=O)N[C@H]1CN(C(=O)CC2CCCC2)CC[C@H]2CC[C@@H](C(=O)NC(c3ccccc3)c3ccccc3)N2C1=O [SM-405] | < 1 | – | – | – | – | < 1 | < 1 | –
19 | CN[C@@H](C)C(=O)N[C@H]1CN(C(=O)CCc2ccc(F)cc2)CC[C@H]2CC[C@@H](C(=O)NC(c3ccccc3)c3ccccc3)N2C1=O [SM-407] | < 1 | – | – | – | – | < 1 | < 1 | –
20 | CN[C@@H](C)C(=O)N[C@H]1CN(C(=O)CCc2ccccc2)CC[C@H]2CC[C@@H](C(=O)NC(c3ccccc3)c3ccccc3)N2C1=O [SM-408] | < 1 | – | – | – | – | < 1 | < 1 | –
21 | CCCC(=O)N1CC[C@H]2CC[C@@H](C(=O)NC(c3ccccc3)c3ccccc3)N2C(=O)[C@@H](NC(=O)[C@H](C)NC)C1 [SM-409] | < 1 | – | – | – | – | < 1 | < 1 | –

Row | SMILES | IC50 (XIAP BIR3) [µM] | IC50 ([1]; listed as SH-207) [µM] | IC50 [1] [µM] | IC50 ([2]; 4 days, WST-8, listed as SH-207, read-out: MDA-MB-231 IC50) [µM] | IC50 ([2]; 4 days, WST-8, read-out: MDA-MB-231 IC50) [µM] | IC50 ([1]; Homo sapiens, SK-OV-3, 96 h) [µM] | IC50 [2, 3] [µM] | IC50 ([2]; Homo sapiens, MDA-MB-231, 96 h, read-out: MDA-MB-231 IC50 (μM)) [µM]
22 | CN[C@@H](C)C(=O)N[C@H]1CN(C(=O)CN2CCNC(=O)C2)CC[C@H]2CC[C@@H](C(=O)NC(c3ccccc3)c3ccccc3)N2C1=O [SM-412] | < 10 | – | – | – | – | > 1 | > 1 | –
23 | CN[C@@H](C)C(=O)N[C@H]1CN(C(=O)C[C@@H](O)C(=O)O)CC[C@H]2CC[C@@H](C(=O)NC(c3ccccc3)c3ccccc3)N2C1=O [SM-413] | < 1 | – | – | – | – | < 100 | < 100 | –
24 | CN[C@@H](C)C(=O)N[C@H]1CN(C(=O)CCn2ccnc2)CC[C@H]2CC[C@@H](C(=O)NC(c3ccccc3)c3ccccc3)N2C1=O [SM-414] | < 1 | – | – | – | – | < 100 | < 100 | –
25 | CN[C@@H](C)C(=O)N[C@H]1CN(C(=O)CC(C)(C)C)CC[C@H]2CC[C@@H](C(=O)NC(c3ccccc3)c3ccccc3)N2C1=O [SM-415] | < 1 | – | – | – | – | < 1 | < 1 | –
26 | CN[C@@H](C)C(=O)N[C@H]1CN(C(=O)C[C@H]2CC[C@H](O)C2)CC[C@H]2CC[C@@H](C(=O)NC(c3ccccc3)c3ccccc3)N2C1=O [SM-416] | < 1 | – | – | – | – | < 10 | < 10 | –
27 | CN[C@@H](C)C(=O)N[C@H]1CN(C(=O)[C@H]2CC[C@H](O)C2)CC[C@H]2CC[C@@H](C(=O)NC(c3ccccc3)c3ccccc3)N2C1=O [SM-418] | < 1 | – | – | – | – | < 10 | < 10 | –
28 | CN[C@@H](C)C(=O)N[C@H]1CN(C(=O)C[C@@H]2CCOC2)CC[C@H]2CC[C@@H](C(=O)NC(c3ccccc3)c3ccccc3)N2C1=O [SM-419] | < 1 | – | – | – | – | < 10 | < 10 | –
29 | CN[C@@H](C)C(=O)N[C@H]1CN(C(=O)CCC(C)C)CC[C@H]2CC[C@@H](C(=O)NC(c3ccccc3)c3ccccc3)N2C1=O [SM-420] | < 1 | – | – | – | – | < 1 | < 1 | –
30 | CN[C@@H](C)C(=O)N[C@H]1CN(C(=O)CCCc2ccccc2)CC[C@H]2CC[C@@H](C(=O)NC(c3ccccc3)c3ccccc3)N2C1=O [SM-421] | < 1 | – | – | – | – | < 1 | < 1 | –
31 | CN[C@@H](C)C(=O)N[C@H]1CN(C(=O)CCCC(C)C)CC[C@H]2CC[C@@H](C(=O)NC(c3ccccc3)c3ccccc3)N2C1=O [SM-422] | < 1 | – | – | – | – | < 1 | < 1 | –
32 | CN[C@@H](C)C(=O)N[C@H]1CN(C(=O)CC(C)C)CC[C@H]2CC[C@@H](C(=O)NC3CCCCC3)N2C1=O [SM-423] | < 10 | – | – | – | – | < 100 | < 100 | –
33 | CN[C@@H](C)C(=O)N[C@H]1CN(C(=O)CC(C)C)CC[C@H]2CC[C@@H](C(=O)N[C@H]3CCc4ccccc43)N2C1=O [SM-425] | < 1 | – | – | – | – | < 10 | < 10 | –
34 | CN[C@@H](C)C(=O)N[C@H]1CN(C(=O)CC(C)C)CC[C@H]2CC[C@@H](C(=O)NCc3ccc(C(F)(F)F)cc3)N2C1=O [SM-426] | < 10 | – | – | – | – | < 10 | < 10 | –
35 | CN[C@@H](C)C(=O)N[C@H]1CN(C(=O)CC(C)C)CC[C@H]2CC[C@@H](C(=O)N[C@@H]3CCCc4ccccc43)N2C1=O [SM-427] | < 1 | – | – | – | – | < 1 | < 1 | –
36 | CN[C@@H](C)C(=O)N[C@H]1CN(C(=O)CC(C)C)CC[C@H]2CC[C@@H](C(=O)NCc3cccc(-c4ccccc4)c3)N2C1=O [SM-429] | < 1 | – | – | – | – | < 10 | < 10 | –
37 | CN[C@@H](C)C(=O)N[C@H]1CN(C(=O)CC(C)C)CC[C@H]2CC[C@@H](C(=O)NCc3cccc4ccccc34)N2C1=O [SM-430] | < 1 | – | – | – | – | < 10 | < 10 | –
38 | CN[C@@H](C)C(=O)N[C@H]1CN(C(=O)CC(C)C)CC[C@H]2CC[C@@H](C(=O)NC3CCc4ccccc43)N2C1=O (stereo partly shown) [SM-431] | < 1 | – | – | – | – | < 1 | < 1 | –
39 | CN[C@@H](C)C(=O)N[C@H]1CN(C(=O)CC(C)C)CC[C@H]2CC[C@@H](C(=O)NCC(c3ccccc3)c3ccccc3)N2C1=O [SM-432] | < 1 | – | – | – | – | < 10 | < 10 | –
40 | CN[C@@H](C)C(=O)N[C@H]1CN(C(=O)CC(C)C)CC[C@H]2CC[C@@H](C(=O)NCc3ccccc3-c3ccccc3)N2C1=O [SM-433] | < 1 | – | – | – | – | < 10 | < 10 | –
41 | CN[C@@H](C)C(=O)N[C@H]1CN(C(=O)CC(C)C)CC[C@H]2CC[C@@H](C(=O)NCc3ccc(-c4ccccc4)cc3)N2C1=O [SM-434] | < 10 | – | – | – | – | < 10 | < 10 | –
